Measurements reported in PMC8728392, “Synthesis, Anticancer Assessment, and Molecular Docking of Novel Chalcone-Thienopyrimidine Derivatives in HepG2 and MCF-7 Cell Lines” (Oxidative Medicine and Cellular Longevity, 2021).

How the values were obtained:
[1] = test system: Bax, Bcl-2, caspase-3, and caspase-9 in HepG2; assay: RT-PCR relative expression of apoptosis markers; format: cell-based, human; conditions: IC50, 8-hour incubation, vs control
Excerpt: We determined the effect of IC50 concentration of newly synthesized thienopyrimidine derivatives (3a-e and 3g and 3b and 3g) on the relative expression levels of some markers of apoptosis in HepG2 and MCF-7 cell lines, respectively. These included the antiapoptotic marker Bcl-2 as well as the apoptotic markers Bax, caspase-3, and caspase-9 [33]. BIORAD iScript™ One-Step RT-PCR kit with SYBR® Green was used to assess the relative levels of expression of apoptosis markers. The measurement was carried out according to the technique of reverse transcription polymerase chain reaction (RT-PCR) using the Rotor-Gene RT-PCR system, and the method of the used kit was done based on the manufacturer's instructions. The procedure of this assay included the following:
Based on the manufacturer's instructions, the Qiagen RNeasy Extraction Kit (Qiagen Ltd., UK) was used to isolate mRNA from approximately 1 × 10^7 cells according to the cell line.
Mix all the following reagents to get the total volume (50 μl): 2X SYBR® Green RTPCR reaction mixture (25 μl), forward primer […] (1.5 μl), reverse primer […] (1.5 μl), nuclease-free water (11 μl), RNA template (1 pg-100 ng total RNA) (10 μl), and iScript reverse transcriptase (1 μl) for One-Step RT-PCR.
The thermal cycler (Rotor-Gene) program used was as follows: one cycle for reverse transcription at 50°C for 10 minutes and one cycle for RT inactivation/Hot-start activation at 95°C for 5 minutes and then 45 cycles for qPCR (10 s at 95°C, 30 seconds for annealing at 55°C, and 30 seconds for extension at 72°C), and this is followed by the final extension (one cycle) at 72°C for 10 minutes.

[2] = test system: human breast cancer cell line (MCF-7); assay: MTT assay, cytotoxicity; format: cell-based; conditions: MCF-7, 24 hours
Experimental: (§1) Cancer cell lines were manipulated according to the method described by Sigounas et al.. In this method, the cell lines were grown as adherent monolayers in T75 flasks with Dulbecco's modified Eagle's medium (DMEM) supplemented with 10% Fetal Bovine Serum (FBS), 2 mM L-glutamine, and 1% streptomycin/penicillin. The cells were left to grow in a CO2 incubator at 37°C, 5% CO2, and 95% humidity until their confluence.
(§2) The 3-[4,5-dimethylthiazol-2-yl]-2,5-diphenyltetrazolium bromide (MTT) colorimetric assay was used to examine the sensitivity of cells to tested compounds (as anticancer drugs), as previously described. This assay depends on the production of a purple formazan derivative from the yellow tetrazolium bromide (MTT) by mitochondrial succinate dehydrogenase in viable cells. The percentage of cell survival was calculated as follows: (1) Percentage of survival=O.D.treated cells/O.D.control cells×100.
(§3) For preliminary screening of the cytotoxicity of synthesized compounds 3a-g, cells exposed to DMSO were used as a control. Plotting the relationship between the survival score and the compound concentration and calculating the IC50 (the concentration required to inhibit cell viability by 50%) were performed for each test compound according to Li et al. in comparison with the reference standard anticancer agent, 5-FU.
(§4) The 3-[4,5-dimethylthiazol-2-yl]-2,5-diphenyltetrazolium bromide (MTT) colorimetric assay was used to examine the sensitivity of cells to tested compounds (as anticancer drugs), as previously described by Hussein et al. (2017). This assay depend on the production of a purple formazan derivative from the yellow tetrazolium bromide (MTT) by mitochondrial succinate dehydrogenase in viable cells. Briefly, after harvesting the cells with 0.25% trypsin, the cell lines were suspended in DMEM. Cells were seeded in 96-well microtiter plates at a concentration of 5×10^4 cell/well in a fresh medium and left to attach to the plates for 24 h before treatment with the tested compounds 3a-g. Test compounds were dissolved in dimethyl sulfoxide (DMSO). After 24 hours, cells were incubated with the appropriate concentration ranges of compounds, the wells were diluted to […] with fresh medium and incubation was continued for 24 hours. Three wells were used for each concentration. After 24 hours of treatment, 20 μl of MTT solution (5mg/ml) was added and subsequently the plates were further incubated for 4 hours to allow the viable cells to biotransform the yellow-colored MTT into purple formazan crystals. The optical density (O.D.) of each well was measured spectrophotometrically at […] with an enzyme-linked immunosorbent assay (ELISA) microplate reader (BioTek, EL-800, USA). The percentage of cell survival was calculated as follows: […]

[3] = test system: human liver cancer cell line (HepG2); assay: MTT assay, cytotoxicity; format: cell-based; conditions: HepG2, 24 hours
Experimental: as §1, §2, §3, §4

HepG2 cells = assay: Annexin V-FITC/PI apoptotic assay; format: cell-based, human
Excerpt: (§5) Annexin V-fluorescein isothiocyanate (FITC) and counterstaining with propidium iodide (PI) using the Annexin V-FITC/PI apoptosis detection kit (BD Biosciences, San Diego, CA) were employed to distinguish early and late apoptotic cells according to the manufacturer's directions. Annexin V conjugated with fluorescein isothiocyanate was used to quantify the loss of phosphatidylserine asymmetry in cell membranes involved in apoptosis, and propidium iodide can distinguish between early apoptosis, late apoptotic, and necrotic cells. Analyses were achieved by using a FACSCalibur flow cytometer (BD Biosciences, San Jose, CA).
(§6) Cells were gently washed twice with PBS accompanied by tryptic digestion (0.25% trypsin/EDTA) and washed yet again with PBS. All the cells including the floating and adherent ones were harvested, pooled and stained with […] in 1× binding buffer for 15 min at room temperature in the dark. Analyses were achieved by FACS Calibur flow cytometer (BD Biosciences, San Jose, CA).

MCF-7 cell line = assay: Annexin V-FITC/PI apoptotic assay; format: cell-based, human
Excerpt: as §5, §6

HepG2 cell line = assay: Cell cycle analysis (PI, flow cytometry); format: cell-based, human
Experimental: Cell cycle analysis was performed to decide if the newly synthesized thienopyrimidine derivatives arrested the cell cycle and at what phase of the cell cycle, the HepG2 and MCF-7 cell lines were arrested. The experiments were performed as previously described by Tolba et al.. HepG2 and MCF-7 cell lines were seeded and incubated with the tested compounds in 6-well plates. After incubation overnight, the cells were washed twice with ice-cold phosphate-buffered saline (PBS), detached by EDTA-trypsinization from the plates, harvested by centrifugation, fixed in ice-cold 70% (v/v) ethanol, and washed with phosphate-buffered saline (PBS, pH 7.2 ± 0.2). The cells were resuspended with 0.1 mg/ml RNase, stained with […] propidium iodide (PI), and analyzed by flow cytometry using a FACSCalibur flow cytometer (BD Biosciences, San Jose, CA). CellQuest software (Becton Dickinson) was used to determine the cell cycle distributions after incubation with 5-FU or tested compounds. Exposure of HepG2 and MCF-7 cell lines to these compounds could interfere with the normal cell cycle distribution.

Bcl-2 16me = test system: Bcl-2 16me; parameters: method as in PMID 19027294; conditions: cited from earlier work
Bcl-2 26me = test system: Bcl-2 26me; parameters: method as in PMID 19027294; conditions: cited from earlier work
[4] = test system: A549 human lung adenocarcinoma cells; parameters: method as in PMID 29660690; conditions: cited from earlier work

Molecule | expression levels of Bcl-2 [1] | survival percentage (mean ± SEM) ([2]; 4.8828125 μg/ml) [%] | survival percentage (mean ± SEM) ([2]; 9.765625 μg/ml) [%] | survival percentage (mean ± SEM) ([2]; 19.53125 μg/ml) [%] | survival percentage (mean ± SEM) ([2]; 39.0625 μg/ml) [%] | survival percentage (mean ± SEM) ([2]; 78.125 μg/ml) [%] | survival percentage (mean ± SEM) ([2]; 156.25 μg/ml) [%] | survival percentage (mean ± SEM) ([2]; 312.5 μg/ml) [%] | survival percentage (mean ± SEM) ([2]; 625 μg/ml) [%] | survival percentage (mean ± SEM) ([2]; 1250 μg/ml) [%] | survival percentage (mean ± SEM) ([2]; 2500 μg/ml) [%] | survival percentage (mean ± SEM) ([2]; 5000 μg/ml) [%] | survival percentage (mean ± SEM) ([2]; 10000 μg/ml) [%] | survival percentage (mean ± SEM) ([3]; 4.8828125 μg/ml) [%] | survival percentage (mean ± SEM) ([3]; 9.765625 μg/ml) [%] | survival percentage (mean ± SEM) ([3]; 19.53125 μg/ml) [%] | survival percentage (mean ± SEM) ([3]; 39.0625 μg/ml) [%] | survival percentage (mean ± SEM) ([3]; 78.125 μg/ml) [%] | survival percentage (mean ± SEM) ([3]; 156.25 μg/ml) [%] | survival percentage (mean ± SEM) ([3]; 312.5 μg/ml) [%] | further results
CCOC(=O)Cn1c(SCC(=O)Nc2ccc(C(=O)/C=C\c3ccccc3Cl)cc2)nc2sc3c(c2c1=O)CCN(C(=O)OCC)C3 [Compound 3a, Ethyl (Z)-2-((2-((4-(3-(2-Chlorophenyl)acryloyl)phenyl)amino)-2-oxoethyl)thio)-3-(2-ethoxy-2-oxoethyl)-4-oxo-3,5,6,8-tetrahydropyrido[4′,3′:4,5]thieno[2,3-d]pyrimidine-7(4H)-carboxylate] | noticeably decreased | 150.0 ± 0.171 | 132.9 ± 0.132 | 124.4 ± 0.079 | 129.1 ± 0.038 | 108.4 ± 0.084 | 101.8 ± 0.284 | 101.6 ± 0.022 | 64.9 ± 0.008 | 9.8 ± 0.003 | 6.28 ± 0.003 | 6.0 ± 0.001 | 6.0 ± 0.063 | 103.5 ± 0.033 | 87.8 ± 0.087 | 74.2 ± 0.012 | 73.8 ± 0.019 | 66.9 ± 0.018 | 40.1 ± 0.021 | 28.4 ± 0.009 | survival percentage (mean ± SEM) ([3]; 625 μg/ml): 21.7 ± 0.012%; survival percentage (mean ± SEM) ([3]; 1250 μg/ml): 20.5 ± 0.004%; survival percentage (mean ± SEM) ([3]; 2500 μg/ml): 19.5 ± 0.001%; survival percentage (mean ± SEM) ([3]; 5000 μg/ml): 19.1 ± 0.001%; survival percentage (mean ± SEM) ([3]; 10000 μg/ml): 18.5 ± 0.001%; early and late apoptosis (HepG2 cells): significantly exhibited early and late apoptosis; total, early, and late apoptosis as well as necrosis relative to the control cells (MCF-7 cell line): significant increase; cell population in G2/M compared with control cells (HepG2 cell line): substantial increase; cell population in pre-G1 phases compared with control cells (HepG2 cell line): significant increase; melting point: 181 to 182 °C
Cc1c(Cl)c(C(=O)N(c2ccccc2)c2ccccc2)nn1-c1ccccc1C(=O)N1Cc2ccccc2CC1CN (stereo not shown) [DRO] | – | – | – | – | – | – | – | – | – | – | – | – | – | – | – | – | – | – | – | – | IC50 (Bcl-2 16me): 30 nM; IC50 (Bcl-2 26me): 100 nM
N.N.[Cl][Pt][Cl] [cisplatin] | – | – | – | – | – | – | – | – | – | – | – | – | – | – | – | – | – | – | – | – | IC50 [4]: 15300 nM
C=CCn1c(SCC(=O)Nc2ccc(C(=O)/C=C/c3cc(OC)c(OC)c(OC)c3)cc2)nnc1-c1ccc(OC)cc1 [compound I] | – | – | – | – | – | – | – | – | – | – | – | – | – | – | – | – | – | – | – | – | IC50 [4]: 4400 nM
Ethyl (Z)-2-(Ethoxymethyl)-4-oxo-3-(2-oxo-2-((4-(3-(2,3,4-trimethoxyphenyl)acryloyl)-phenyl)amino)ethyl)-3,5,6,8-tetrahydropyrido[4′,3′:4,5]thieno[2,3-d]pyrimidine-7(4H)-carboxylate [Compound 3d] | noticeably decreased | 133.8 ± 0.227 | 146.0 ± 0.065 | 133.2 ± 0.116 | 132.7 ± 0.231 | 113.1 ± 0.171 | 103.1 ± 0.202 | 35.3 ± 0.044 | 26.5 ± 0.120 | 8.5 ± 0.006 | 6.2 ± 0.005 | 6.12 ± 0.003 | 5.8 ± 0.001 | 123.0 ± 0.026 | 111.0 ± 0.041 | 99.2 ± 0.026 | 91.2 ± 0.138 | 31.0 ± 0.017 | 20.5 ± 0.002 | 20.5 ± 0.002 | survival percentage (mean ± SEM) ([3]; 625 μg/ml): 20.0 ± 0.001%; survival percentage (mean ± SEM) ([3]; 1250 μg/ml): 19.5 ± 0.001%; survival percentage (mean ± SEM) ([3]; 2500 μg/ml): 19.4 ± 0.004%; survival percentage (mean ± SEM) ([3]; 5000 μg/ml): 18.5 ± 0.003%; survival percentage (mean ± SEM) ([3]; 10000 μg/ml): 18.4 ± 0.002%; S phase cell population (HepG2 cell line): significant (P < 0.05) increase; cell population in pre-G1 phases compared with control cells (HepG2 cell line): significant increase
